# Reference: US10870876B2, “Method for detecting a presence or absence of at least one first zone of inhibition” (BIOMÉRIEUX, priority 2015, dated 2020)
# Key:
# [1] = tested on: Staphylococcus aureus ATCC 25923; assay: Disk-diffusion test with ampicillin disk, inoculation by flooding or by droplets along an axis; assay type: cell-based; conditions: disk containing 10 pig of ampicillin, 0.5 McFarland, 37° C. for 6 hours 30 minutes; similar for flooding and droplets; EUCAST threshold R 18 mm
# From the text: A conventional test of sensitivity is the disk-diffusion test, often referred to as the Kirby-Bauer method. This standardized method involves the inoculation of an agar culture medium (for example a 90 mm or 150 mm Mueller-Hinton agar) with a sample, generally standardized to 0.5 McFarland, obtained from a microbial isolate. The inoculation may be performed by conventional manual methods, by means of a swab or a loop. Alternatively, the inoculation may be performed by flooding the agar with a suspension standardized to one tenth of 0.5 McFarland, followed by removal of the excess sample. Following the inoculation, one or more paper disks impregnated with defined concentrations of antibiotics are deposited on the surface of the agar. After an incubation period, generally from 16 to 20 hours at 35° C., the diameter of the zone(s) of inhibition around the disks makes it possible to determine the sensitivity of the microorganism present in the inoculated sample to each of the antimicrobial agents impregnated in each disk. Due to the standardization of the Kirby-Bauer method, the results of this method are analyzed by comparing the diameter of each of the zones of inhibition with the recommendations published by regulatory bodies such as NCCLS (National Committee for Clinical Laboratory Standards) or EUCAST (European Committee on Antimicrobial Susceptibility Testing). […]
# [2] = tested on: Escherichia coli ATCC 35218; assay: Etest strip MIC, deposition of the sample in droplets along the strip; assay type: cell-based
Compound,diameter D of the zone of inhibition [1] [mm],"MIC ([2]; Table 2, droplet, ATCC 35218, 0.01 McF, 4 H) [µg/mL]","MIC ([2]; Table 2, droplet, ATCC 35218, 0.01 McF, 5 H) [µg/mL]","MIC ([2]; Table 2, droplet, ATCC 35218, 0.1 McF, 4 H) [µg/mL]","MIC ([2]; Table 2, droplet/replicate 2, ATCC 35218, 0.5 McF, 4 H) [µg/mL]"
"CC1(C)S[C@@H]2[C@H](NC(=O)[C@H](N)c3ccccc3)C(=O)N2[C@H]1C(=O)O [Ampicillin, ampicillin]",22,–,–,–,–
gentamicin,–,1.3,1.3,2,2
